Experiments:
Format in all cases: cell-based
[1] = test system: FaDu oral cancer cells; experiment: MTT antiproliferative assay, FaDu; settings: Homo sapiens, FaDu; MTT, 72 h treatment; mean ± SEM; read-out: GI50 for FaDu
Description: FaDu cell line was cultured in RPMI-1640 medium containing L-glutamine (300 mg/L) and sodium bicarbonate (2 g/L), while Cal27, HEK293 and HFF-1 cell lines were cultured in DMEM medium containing glucose (4.5 g/L), L-glutamine (584 mg/L) and sodium bicarbonate (3.7 g/L). For gene expression and qPCR studies, RNA isolation was performed using Trizol (Thermo). The reagents and the primer sequences employed for the qPCR assays have been described previously ([Chakraborty et al., 2022]).
The hits derived from the docking study were sourced from either commercial suppliers or pre-existing compounds within our laboratory or were synthesized anew. The FaDu and Cal27 oral cancer cells were treated with the compounds for 72 h at concentrations of 3, 10, 30, and 100 μM. A post-treatment MTT assay was done to evaluate their antiproliferative activity. Table S2 represents the anti-proliferative and enzyme inhibitory activity of the compounds obtained as hits from the structure-based drug design strategy. […] Consequently, 50 μM of all the hit compounds were evaluated for their HK2 enzyme inhibitory activity. 50 μM of compounds were incubated with HK2 protein and the rate of reaction was assessed in kinetic mode (rate of conversion of NAD to NADH). The choice of 50 μM concentration was based primarily on MTT assays and GI50 calculation. The average GI50 values of the hit compounds against less sensitive FaDu cell line was approximately 50 μM. Considering this information, we reasoned that utilizing a concentration equivalent to the average GI50 would allow us to assess the maximum inhibitory effect of the compounds on HK2 enzyme activity. […] The same compounds have been previously reported by our team to have EGFR phosphorylation inhibitory potential and were coded as H2 (compound 14) and H10 (compound 11) ([Chakraborty et al., 2022]). […] Figures 1C,D show the lead compounds H2 and H10 at the active site of HK2 enzyme interacting via H-bonds with the amino acid residues.

[2] = test system: Cal27 cells; experiment: Cell cycle analysis (propidium iodide, flow cytometry), Cal27; settings: Cal27, 10 and 30 μM, 72 h
Description: FaDu and Cal27 cells were treated with the test compounds (0.5 million cells per treatment) for 72 h, and harvested for cell cycle analysis (Cat# BD340242) and apoptosis analysis (Cat# BD556547) by flow cytometry according to manufacturer’s instructions.
To determine the effect of HK2 inhibition in the progression of the cell cycle, flow cytometric analysis of compound-treated FaDu and Cal27 cells was carried out 72 h post-treatment. Cell cycle analysis is carried out to quantify the DNA content and estimate the percentages of the cell population in different cell cycle phases via propidium iodide staining. […] To determine the apoptosis-inducing activity of HK2 inhibitors, 10 and 30 μM of compounds H2 and H10 treated FaDu and Cal27 cells were stained with annexin V conjugated with FITC, followed by propidium iodide staining.

[3] = test system: LC3B in Cal27 cells; experiment: Immunofluorescence LC3B / MitoTracker Red colocalization (mitophagy); settings: Cal27, 4 h
Description: Cal27 cells were treated with respective compounds for 4h, and washed with PBS and fixed with 100% methanol. The non-specific antibody binding was blocked by incubating with 5% goat serum in 0.3% Triton X-100 for 1 h. The diluted primary antibody (LC3B mAb, CST Cat# 3868) and MitoTracker Red (CST, Cat# 9082) were applied and samples were incubated overnight at 4°C followed by addition of fluorescently labelled secondary antibody for 2 h at room temperature and visualized using Leica DMi8 laser scanning confocal microscope using the Leica LAS X software. To analyze the extent of mitophagy in the captured images, the colocalization area of green (LC3B) and red (Mito-Red) portions were quantified using the LAS X software. The LC3B MFI was also quantified and represented in gray values.
Mitochondria utilize the oxidizable substrates to produce a membrane potential as the proton gradient ([Sivandzade et al., 2019]). Loss in mitochondrial membrane potential (MMP) is a direct measurement of mitochondrial stress and may cause the release of apoptotic factors leading to cell death ([Zhang et al., 2017]). […] To determine the change in MMP post-treatment with HK2 inhibitors, the cells were treated with 200 nM of TMRE (tetramethyl rhodamine ethyl ester, a cell-permeant cationic dye readily sequestered by active mitochondria) and flow cytometric analyses of TMRE uptake was carried out. […]

[4] = test system: EGFR tyrosine kinase phosphorylation in Cal27 cells; experiment: Western blot pEGFR in Cal27 lysates; settings: Cal27, 30 µM, 4 h post-treatment

COc1ccc(CNC(=O)c2nc3ccccc3s2)cc1O [Compound 14, N-(3-hydroxy-4methoxybenzyl)benzo[d]thiazole-2-carboxamide]
GI50 [1]: 63.1 µM | effect on cell cycle progression [2]: G0/G1 phase arrest | LC3B expression and co-localization with MitoTracker Red (mitophagy) [3]: increase in LC3B expression | EGFR tyrosine kinase phosphorylation [4]: does not significantly impact

— paper PMC10961359, “Targeting hexokinase 2 for oral cancer therapy: structure-based design and validation of lead compounds” (Frontiers in Pharmacology, 2024)
